Results taken from PMC8019741, “Efficacy Prediction of Four Pharmaceutical Formulations for Intramammary Administration Containing Aloe vera (L.) Burm. f. Combined With Ceftiofur or Cloxacillin in Lactating Cows as an Alternative Therapy to Treat Mastitis Caused by Staphylococcus aureus” (Frontiers in Veterinary Science, 2021).

Tested on: Staphylococcus aureus ATCC 29213
Experiment: Macrodilution MIC test (CLSI)
Type: cell-based
Conditions: for MIC of the antimicrobial not combined: alone
Protocol: A macrodilution test was performed to determine the MIC for the different combinations, following the recommendations from the CLSI ([47]).
Aloe vera gel extract (1,200 mg/ml) was diluted in Muller-Hinton II (Cation Adjusted) Broth (MHBCA) from BD® (Franklin Lakes, NJ, USA) up to a range of concentrations from 150 to 1,200 mg/ml. In addition, the standard solutions of cloxacillin and ceftiofur were diluted in MHBCA to prepare 2-fold serial dilutions at a concentrations range of 0.015–128 μg/ml.
Staphylococcus aureus ATCC 29213 (KWIK-STIK) was sourced from Microbiologics® (St. Cloud, MN, USA) and used to test the MIC for the different combinations of Aloe vera and cloxacillin or ceftiofur. First, S. aureus was rehydrated with Trypticase™ Soy Broth from BD® (Franklin Lakes, NJ, USA). Then, these bacteria were cultured in the Trypticase™ Soy Broth from BD® (Franklin Lakes, NJ, USA) with 5% sheep defibrinated blood (Franklin Lakes, NJ, USA) at an incubation temperature of 36 ± 1°C for 24 h. Once incubation ended, bacteria were preserved at −80°C using cryobank vials, while waiting for further processing. […] These cultured bacteria were then suspended in MHBCA from BD® (Franklin Lakes, NJ, USA), and the optical density was adjusted according to the McFarland Standard Solution to standardize the number of bacteria. From this broth, dilutions containing 5 × 10^5 UFC/ml were incubated along with dilutions of a combination of Aloe vera extract and antimicrobials. […] Additionally, S. aureus bacteria were incubated separately, in different tubes, with the extract, cloxacillin, and ceftiofur dilutions.

Structure (SMILES) | MIC (Staphylococcus aureus, ATCC29213, calculated from the MIC of Aloe vera in the combination and the concentration of aloin A + aloin B in the extract) [µg/mL] | MIC of the antimicrobial not combined [µg/mL]
O=C1c2c(O)cccc2C([C@@H]2O[C@H](CO)[C@@H](O)[C@H](O)[C@H]2O)c2cc(CO)cc(O)c21 (stereo partly drawn) [aloin] | 0.00366 | –
CO/N=C(\C(=O)N[C@@H]1C(=O)N2C(C(=O)O)=C(CSC(=O)c3ccco3)CS[C@H]12)c1csc(N)n1 [ceftiofur] | – | 0.25
Cc1onc(-c2ccccc2Cl)c1C(=O)N[C@@H]1C(=O)N2[C@@H]1SC(C)(C)[C@@H]2C(=O)O [cloxacillin] | – | 0.25
